One data set addresses T1, human TRPV3 (Homo sapiens, UniProt Q8NET8).
T1 construct: expressed in transfected cells
T1 sequence (Q8NET8 1-790): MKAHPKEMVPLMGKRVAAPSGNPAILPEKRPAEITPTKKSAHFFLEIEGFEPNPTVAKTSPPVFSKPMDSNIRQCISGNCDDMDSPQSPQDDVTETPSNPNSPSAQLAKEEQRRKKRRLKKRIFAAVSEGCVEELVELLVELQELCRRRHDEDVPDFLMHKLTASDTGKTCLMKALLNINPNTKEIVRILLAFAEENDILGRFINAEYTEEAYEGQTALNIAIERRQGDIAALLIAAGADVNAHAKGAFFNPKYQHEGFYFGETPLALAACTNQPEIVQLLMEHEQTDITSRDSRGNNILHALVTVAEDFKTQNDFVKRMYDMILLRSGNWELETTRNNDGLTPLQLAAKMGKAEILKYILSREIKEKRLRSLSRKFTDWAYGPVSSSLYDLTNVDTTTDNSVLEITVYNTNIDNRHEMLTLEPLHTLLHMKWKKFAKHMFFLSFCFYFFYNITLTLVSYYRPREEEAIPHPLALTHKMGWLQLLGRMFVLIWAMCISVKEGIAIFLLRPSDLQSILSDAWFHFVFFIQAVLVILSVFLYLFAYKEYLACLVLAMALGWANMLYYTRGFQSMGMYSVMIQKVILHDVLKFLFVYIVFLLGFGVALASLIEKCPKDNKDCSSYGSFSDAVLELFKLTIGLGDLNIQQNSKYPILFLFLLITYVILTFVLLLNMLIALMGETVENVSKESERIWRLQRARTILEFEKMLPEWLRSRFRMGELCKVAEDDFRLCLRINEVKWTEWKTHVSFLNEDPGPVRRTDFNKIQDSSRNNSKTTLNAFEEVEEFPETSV
Description: In vitro antagonism of recombinant human TRPV3 activation (FLIPR Tetra calcium assay). The format is cell-based. The settings on record: HEK293 cells stably expressing human TRPV3, agonist 2-APB at 80 μM. The method, boiled down: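 HEK293 cells stably expressing human TRPV3, loaded with Calcium-4 dye for 90–120 min, received compound in DPBS, then 80 μM 2-APB (EC80) 3 min later. Max-minus-min fluorescence expressed as % of 2-APB response without antagonist; IC50 values mostly averages of n≥2 runs.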

Data set [1] can be described thus: In vitro human microsomal stability assay. The conditions noted are these: human, microsomes, 0.5 h, 0.5 μM, pH 7.4. It counts as in vitro ADME. The method, boiled down: (§1)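 Compound is mixed with liver microsomes (human, or rat of the Sprague-Dawley strain). The mixture is then held at 37° C. in the presence of NADPH. Time-zero plates also receive NADPH.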
Data set [2] in a line: In vitro rat microsomal stability assay. It counts as in vitro ADME, rat (Sprague-Dawley). The conditions noted are these: Sprague-Dawley, rat, microsomes, 0.5 h, 0.5 μM, pH 7.4. The method, boiled down:
as §1

[3] abbreviates: actual measured value shown parenthetically, in most cases average of at least two runs, read-out: IC50.
Where [4] appears, read: reported range, read-out: IC50 (range class).

Like-named read-outs stand apart in the source and are kept apart here.

`O=C1CC(c2cncc(C(F)(F)F)c2)([C@H](O)c2ccccn2)C1` [Example 296, 3-[(S)-hydroxy(pyridin-2-yl)methyl]-3-[5-(trifluoromethyl)pyridin-3-yl]-cyclobutanone]: the IC50 on human TRPV3 (setting [3]) and on human TRPV3 (setting [4]) was > 20 µM throughout. Also, the “HUMAN MICROSOMAL STABILITY (% REMAINING AFTER 30 MINUTES)” value in data set [1] is 67%. Also, the “RAT MICROSOMAL STABILITY (% REMAINING AFTER 30 MINUTES)” value in data set [2] is given as 12%.
As to `OC(c1ccccn1)C1(c2ccnc(C(F)(F)F)c2)CC2(C1)OCCO2` (centres unmarked) [Example 297, pyridin-2-yl{2-[2-(trifluoromethyl)pyridin-4-yl]-5,8-dioxaspiro[3.4]oct-2-yl}methanol], the IC50 on human TRPV3 (setting [3]) and on human TRPV3 (setting [4]) was > 20 µM each time. For the same compound, in data set [1], the “HUMAN MICROSOMAL STABILITY (% REMAINING AFTER 30 MINUTES)” value is >85%. In addition, the “RAT MICROSOMAL STABILITY (% REMAINING AFTER 30 MINUTES)” value in data set [2] came out at 2.0%.
Regarding `O=C1CC(c2ccnc(C(F)(F)F)c2)(C(O)c2ccccn2)C1` (centres unmarked) [Example 298, 3-[hydroxy(pyridin-2-yl)methyl]-3-[2-(trifluoromethyl)pyridin-4-yl]-cyclobutanone], the IC50 at human TRPV3 (setting [3]) and on human TRPV3 (setting [4]) was > 20 µM throughout. Besides, the “HUMAN MICROSOMAL STABILITY (% REMAINING AFTER 30 MINUTES)” value in data set [1] amounted to 80%. Besides, in data set [2], the “RAT MICROSOMAL STABILITY (% REMAINING AFTER 30 MINUTES)” value came to 59%.
As to `O=C1CC(c2ccnc(C(F)(F)F)c2)([C@H](O)c2ccccn2)C1` [Example 299, 3-[(S)-hydroxy(pyridin-2-yl)methyl]-3-[2-(trifluoromethyl)pyridin-4-yl]-cyclobutanone], the IC50 at human TRPV3 (setting [3]) and on human TRPV3 (setting [4]) was > 20 µM in each case. The “HUMAN MICROSOMAL STABILITY (% REMAINING AFTER 30 MINUTES)” value in data set [1] is reported as >85%. Further, the “RAT MICROSOMAL STABILITY (% REMAINING AFTER 30 MINUTES)” value in data set [2] was >85%.
With `OC(c1ccccn1)C1(c2nc3ccc(F)cc3s2)CCC1` (centres unmarked) [Example 300, [1-(6-fluoro-1,3-benzothiazol-2-yl)cyclobutyl](pyridin-2-yl)methanol], the IC50 at human TRPV3 (setting [3]) came out at 4.92 µM. The “HUMAN MICROSOMAL STABILITY (% REMAINING AFTER 30 MINUTES)” value in data set [1] is 35%. For the same compound, the “RAT MICROSOMAL STABILITY (% REMAINING AFTER 30 MINUTES)” value in data set [2] is reported as 0.020%.
Regarding `OC(c1ccccn1)C1(c2nc3ccc(Cl)cc3o2)CCC1` (centres unmarked) [Example 301, [1-(6-chloro-1,3-benzoxazol-2-yl)cyclobutyl](pyridin-2-yl)methanol], at human TRPV3 (setting [3]), the IC50 is 6.04 µM. Besides, the “HUMAN MICROSOMAL STABILITY (% REMAINING AFTER 30 MINUTES)” value in data set [1] is on record as 57%. Besides, the “RAT MICROSOMAL STABILITY (% REMAINING AFTER 30 MINUTES)” value in data set [2] was found to be 22%.
In the case of `OC1CC(c2cncc(C(F)(F)F)c2)(C(O)c2ccccn2)C1` [Example 303, cis-3-[(S)-hydroxy(pyridin-2-yl)methyl]-3-[5-(trifluoromethyl)pyridin-3-yl]cyclobutanol], the IC50 on human TRPV3 (setting [3]) is 0.53 µM. The “HUMAN MICROSOMAL STABILITY (% REMAINING AFTER 30 MINUTES)” value in data set [1] turned out to be 80%. In data set [2], the “RAT MICROSOMAL STABILITY (% REMAINING AFTER 30 MINUTES)” value came to 32%.
On to `OC1CC(c2cncc(C(F)(F)F)c2)(C(O)c2ccccn2)C1` [Example 304, trans-3-[(S)-hydroxy(pyridin-2-yl)methyl]-3-[5-(trifluoromethyl)pyridin-3-yl]cyclobutanol], for which the IC50 at human TRPV3 (setting [3]) stood at 0.25 µM. Further, the “HUMAN MICROSOMAL STABILITY (% REMAINING AFTER 30 MINUTES)” value in data set [1] was >85%. In addition, in data set [2], the “RAT MICROSOMAL STABILITY (% REMAINING AFTER 30 MINUTES)” value is recorded as 44%.
The matching figures for `OC1CC(c2ccnc(C(F)(F)F)c2)(C(O)c2ccccn2)C1` [Example 305, cis-3-[(S)-hydroxy(pyridin-2-yl)methyl]-3-[2-(trifluoromethyl)pyridin-4-yl]-cyclobutanol]: 0.29 µM, 63% and 49%.
As to `CC1(O)CC(c2ccc(OC(F)(F)F)cc2)(C(O)c2ncccn2)C1` [Example 310, trans-3-((S)-hydroxy(pyrimidin-2-yl)methyl)-1-methyl-3-(4-(trifluoromethoxy)phenyl)cyclobutanol], the IC50 on human TRPV3 (setting [3]) and on human TRPV3 (setting [4]) was > 20 µM throughout. The “HUMAN MICROSOMAL STABILITY (% REMAINING AFTER 30 MINUTES)” value in data set [1] is >85%. In data set [2], the “RAT MICROSOMAL STABILITY (% REMAINING AFTER 30 MINUTES)” value is reported as >85%.

(Values after patent US8772499B2, “TRPV3 modulators” (AbbVie Inc., priority 2011, dated 2014).)
